Laboratory results: EPA's ToxValDB 9.5

Tested on: Rattus norvegicus
[1] = chronic, duration: 2 years, oral, F, Sprague-Dawley, Body Weight: […] lower terminal body weight
[2] = chronic, duration: 2 years, oral, M/F, Sprague-Dawley, Hepatic: Increased serum ALT and AST at ?[…] / hepatocellular hypertrophy at 15 mg/kg/day / hepatocellular necrosis at 15 mg/kg/day only …
[3] = chronic, duration: 2 years, oral, M, Sprague-Dawley, Reproductive: Vascular mineralization in the testes
[4] = developmental, duration: 15 hours, inhalation, F, Sprague-Dawley, Developmental: 10% decreased neonatal body weight on PND 1
[5] = reproduction developmental, duration: 90 days, oral, M/F, Sprague-Dawley, Body Weight: >11% reduced body weight
[6] = reproduction developmental, duration: 90 days, oral, M/F, Sprague-Dawley, Hepatic: Increased absolute and relative liver weight in P-generation (36%) and F1-generation (30%) males / hepatocellular hypertrophy and …
[7] = short-term, duration: 2 weeks, inhalation, M, CD, Body Weight: 7% lower body weight on exposure day 5
[8] = short-term, duration: 14 days, oral, M, Body Weight: 24% decrease in overall body weight gain
[9] = short-term, duration: 14 days, oral, M, CD, Body Weight: 14% lower final body weight
[10] = short-term, duration: 14 days, oral, M, CD, Body Weight: 14% reduction in final body weight
[11] = short-term, duration: 14 days, oral, M, CD, Reproductive: 2-fold increase in serum estradiol
[12] = short-term, duration: 14 days, oral, M, CD, Reproductive: 63% increase in serum estradiol
[13] = short-term, duration: 28 days, oral, M, CD, Body Weight: 10% decrease in final body weight
[14] = short-term, duration: 28 days, oral, M, CD, Hepatic: 34% decrease in serum triglyceride levels, minimal hepatocellular hypertrophy at ?[…] / minimal focal necrosis at 29 mg/kg/day

Question: What does the source list for O=C([O-])C(F)(F)C(F)(F)C(F)(F)C(F)(F)C(F)(F)C(F)(F)C(F)(F)F.[NH4+] [Ammonium perfluorooctanoate]?
Answer: NOAEL (acute, duration: 1 days, dermal, M/F, CD, Dermal: Mild skin irritation): 3000 mg/kg-day; LOAEL (acute, duration: 1 days, dermal, M, CD, Death: 14-day LD50): 7000 mg/kg-day; LOAEL (acute, duration: 1 days, oral, F, albino, Death: LD50): 430 mg/kg-day; LOAEL (acute, duration: 1 days, oral, M, albino, Death: LD50): 680 mg/kg-day; LOAEL (chronic, duration: 1 years, oral, M, CD, Body Weight: >10% reduced weight gain + Reproductive: Significant increase in serum estradiol at 1, 3, 6, 9, and 12 months (~100-180%) / …): 13.6 mg/kg-day; NOAEL (chronic, duration: 1 years, oral, M, CD, Hepatic: Increased relative liver weight): 13.6 mg/kg-day; NOAEL (chronic, duration: 2 years, oral, F, Sprague-Dawley): 15 mg/kg-day; LOAEL [1]: 15 mg/kg-day; NOAEL [1]: 1.5 mg/kg-day; NOAEL (chronic, duration: 2 years, oral, M/F, Sprague-Dawley): 15 mg/kg-day; LOAEL [2]: 15 mg/kg-day; NOAEL [2]: 1.5 mg/kg-day; LOAEL (chronic, duration: 2 years, oral, M/F, Sprague-Dawley, Other Cancer: CEL: testicular Leydig cell adenomas): 15 mg/kg-day; LOAEL (chronic, duration: 2 years, oral, M, CD, Body Weight: >10% reduction in weight gain most of the study + Other: Increased incidence of acinar cell + Reproductive: Increased incidence…): 13.6 mg/kg-day; LOAEL (chronic, duration: 2 years, oral, M, CD, Cancer: CEL: testicular Leydig cell adenomas and pancreatic acinar cell adenomas): 13.6 mg/kg-day; NOAEL (chronic, duration: 2 years, oral, M, CD, Hepatic: Increased relative liver weight): 13.6 mg/kg-day; LOAEL (chronic, duration: 2 years, oral, M, Sprague-Dawley, Other Noncancer: Inflammation of the salivary gland): 1.5 mg/kg-day; LOAEL [3]: 15 mg/kg-day; NOAEL [3]: 1.5 mg/kg-day; LOAEL [4]: 25 mg/m3; NOAEL [4]: 10 mg/m3; NOAEL (developmental, duration: 10 days, oral, F, Sprague-Dawley, Developmental: No alterations in fetal body weight or teratology): 100 mg/kg-day; LOAEL (developmental, duration: 90 days, oral, M/F, Sprague-Dawley, Developmental: Increased number of dead pups on PNDs 6-8): 30 mg/kg-day; NOAEL (developmental, duration: 90 days, oral, M/F, Sprague-Dawley, Developmental: Increased number of dead pups on PNDs 6-8 + Endocrine: Vacuolation of zona glomerulosa of adrenal gland): 10 mg/kg-day; LOAEL (reproduction developmental, duration: 10 days, oral, F, Sprague-Dawley, Body Weight: 33% reduced maternal body weight gain): 100 mg/kg-day; LOAEL [5]: 10 mg/kg-day; NOAEL [5]: 3 mg/kg-day; LOAEL (reproduction developmental, duration: 90 days, oral, M/F, Sprague-Dawley, Endocrine: Vacuolation of zona glomerulosa of adrenal gland): 30 mg/kg-day; LOAEL [6]: 3 mg/kg-day; NOAEL [6]: 1 mg/kg-day; NOAEL (reproduction developmental, duration: 90 days, oral, M/F, Sprague-Dawley, Reproductive: No alteration in reproductive performance in P0 or F1 generation): 30 mg/kg-day; NOAEL (short-term, duration: 2 weeks, dermal, M, CD): 2000 mg/kg-day; LOAEL (short-term, duration: 2 weeks, dermal, M, CD, Body Weight: 14% weight loss): 200 mg/kg-day; NOAEL (short-term, duration: 2 weeks, dermal, M, CD, Body Weight: 14% weight loss + Dermal: Skin irritation / acute necrotizing dermatitis): 20 mg/kg-day; LOAEL (short-term, duration: 2 weeks, dermal, M, CD, Hepatic: Foci of coagulative necrosis): 20 mg/kg-day; LOAEL [7]: 84 mg/m3; NOAEL [7]: 7.6 mg/m3; NOAEL (short-term, duration: 2 weeks, inhalation, M, CD, Hepatic: Increased absolute and relative liver weight / hepatocellular hypertrophy at 7.6 mg/m3 + Neurological: No histological alterations…): 84 mg/m3; LOAEL (short-term, duration: 7 days, oral, M, Sprague-Dawley, Body Weight: 17% weight loss): 50 mg/kg-day; NOAEL (short-term, duration: 7 days, oral, M, Sprague-Dawley, Hepatic: 2-fold increase in relative and absolute liver weight): 50 mg/kg-day; NOAEL (short-term, duration: 7 days, oral, M, Sprague-Dawley, Hepatic: Increased liver weight, decreased serum cholesterol, triglyceride, hepatocellular hypertrophy at ?18 mg/kg/day): 23 mg/kg-day; NOAEL (short-term, duration: 7 days, oral, M, Wistar, Hepatic: 66% increase in absolute liver weight): 16 mg/kg-day; LOAEL [8]: 3 mg/kg-day; NOAEL [8]: 1 mg/kg-day; LOAEL [9]: 20 mg/kg-day; NOAEL [9]: 2 mg/kg-day; LOAEL [10]: 25 mg/kg-day; NOAEL [10]: 10 mg/kg-day; NOAEL (short-term, duration: 14 days, oral, M, CD, Hepatic: 34% increase in absolute and relative liver we): 40 mg/kg-day; NOAEL (short-term, duration: 14 days, oral, M, CD, Hepatic: 46% increase in relative liver weight at ?10 mg/kg/day): 50 mg/kg-day; LOAEL [11]: 2 mg/kg-day; NOAEL [11]: 0.2 mg/kg-day; LOAEL [12]: 10 mg/kg-day; NOAEL [12]: 1 mg/kg-day; LOAEL (short-term, duration: 14 days, oral, M, CD, Reproductive: 184% increase in serum estradiol): 25 mg/kg-day; NOAEL (short-term, duration: 14 days, oral, M, Hepatic: Decreased serum cholesterol levels at ?0.3 mg/kg/day): 30 mg/kg-day; NOAEL (short-term, duration: 14 days, oral, M, Sprague-Dawley, Hepatic: 2-fold increased mean relative liver weight at 50 mg/kg/day + Immunotoxicological: No alterations in spleen weight or splenocyte …): 50 mg/kg-day; LOAEL (short-term, duration: 28 days, oral, F, albino, Death: before end of 1st week of study): 1130 mg/kg-day; NOAEL (short-term, duration: 28 days, oral, M, CD): 29 mg/kg-day; NOAEL (short-term, duration: 28 days, oral, M, CD, Body Weight: 30 mg/kg/day: 11% reduction in final body weight / 100 mg/kg/day: 33% reduction in final body weight): 10 mg/kg-day; LOAEL [13]: 9.6 mg/kg-day; NOAEL [13]: 0.96 mg/kg-day; LOAEL [14]: 29 mg/kg-day; NOAEL [14]: 0.29 mg/kg-day; NOAEL (short-term, duration: 28 days, oral, M, CD, Hepatic: Hepatocyte hypertrophy): 3 mg/kg-day
